These results are taken from patent publication US20260007600A1, “NUCLEIC ACID DRUG FOR TREATING HYPERURICEMIA-RELATED DISEASES, PREPARATION METHOD THEREFOR, AND USE THEREOF” (Rigerna Therapeutics (Beijing) Co., Ltd., priority 2022, published 2026).

Assay [1] deals with hyperuricemia mouse model. The assay is described as follows: Therapeutic effect in hyperuricemia model mice (uric acid inhibitors injected subcutaneously), Example 8. The class given is in vivo, C57BL/6 mice. Conditions: mUox@iLAND 200 μL tail vein once; Allopurinol daily in drinking water; vs PBS group; FIG. 15. An excerpt:
(§1) Female C57BL/6 mice aged 6 to 8 weeks were purchased from SPF (BEIJING) BIOTECHNOLOGY CO., LTD. The mice were randomly divided into 4 groups and subjected to different treatments, i.e., one group was fed normally, and the other three groups were constructed as models of hyperuricemia. For model mice, uric acid inhibitors were subcutaneously injected on Day −14. On Day 0, blood of all the mice was collected by orbital sampling, and serum was separated to detect uric acid levels. After confirming that the models of mice were successfully modeled, the mice were administrated with drug. The mice that were not subjected to the model construction were raised normally and administrated through tail vein injection with 200 μL of PBS (Control group, G1). The mice were subject to the model construction, and on 14 days after the model construction, the mice were administrated through tail vein injection with 200 μL of PBS (PBS group, G2). […] At different time points after the drug administration, blood of the mice was collected by orbital sampling, and the serum was separated and analyzed for uric acid and other biochemical indices. The changes in weight of the mice were recorded throughout the model construction and drug administration.

In assay [2] the test system is hyperuricemia mouse model. Briefly: Therapeutic effect in hyperuricemia model mice (0.15% high-purine feed), Example 9. In kind it is in vivo, C57BL/6 mice. To be noted: for serum uric acid during treatment: Allopurinol daily in drinking water.
Text: as §1, with “For the” for “For”, “the mice” for “uric acid inhibitors”, “fed with 0.15% high-purine feed starting from” for “subcutaneously injected on”, “−14, that is, the hyperuricemia model was constructed by continuous high-purine diet.” for “−14.”, “administration. […] The liver tissue was taken for metabolomics analysis, and the heart, liver, spleen, lung, kidney, and other tissues and organs were fixed and analyzed for pathological changes by H&E staining.” for “administration.”
The same method as step 1 of the present example was used to construct the hyperuricemia mouse model, and the therapeutic effect of the novel lipid nanoparticle Uox1@iLAND in the hyperuricemia mouse model was evaluated. […] At different time points after the drug administration, blood of the mice was collected by orbital sampling, and the serum was separated and the uric acid level was measured.

In the case of `Oc1ncnc2[nH]ncc12` [Allopurinol], the “serum uric acid during treatment” value in assay [1] is “able to maintain a certain level of uric acid”; in assay [2] (step 1, mUox@iLAND 200 μL tail vein once, FIG. 19), “lowered the uric acid level below the normal level”; in assay [2] (step 2, Uox1@iLAND 200 μL tail vein once, FIG. 24), “lower the uric acid level to a level same as the normal level or a level lower than the normal level”. Also, the “serum uric acid level reached” value in assay [2] (step 1, Allopurinol daily in drinking water, FIG. 19) is on record as “around 0 μM”.
